In ChEMBL document CHEMBL1201862, “PubChem BioAssay data set” (2004):
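Cultured in 96-well plates, cells were exposed to test compound for 48 hours across five concentrations. GI50: concentration for 50% inhibition of growth.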 Active and inactive are the calls of the source. Rule as the data show it: active = GI50 up to about 1.1 µM and inactive = higher.

Experiments:
Assay in all cases: DTP human tumour cell line panel, 48 h
MOLT-4 = tested on: MOLT-4
SF-539 = tested on: SF-539
SK-MEL-2 = tested on: SK-MEL-2
SK-OV-3 = tested on: SK-OV-3
NCI-H460 = tested on: NCI-H460
Malme-3M = tested on: Malme-3M
RXF 393 = tested on: RXF 393
OVCAR-5 = tested on: OVCAR-5
U-251 = tested on: U-251
SR = tested on: SR
OVCAR-4 = tested on: OVCAR-4
A498 = tested on: A498
SK-MEL-28 = tested on: SK-MEL-28
KM12 = tested on: KM12
OVCAR-8 = tested on: OVCAR-8
HOP-62 = tested on: HOP-62
EKVX = tested on: EKVX
HCT-15 = tested on: HCT-15
HOP-92 = tested on: HOP-92
HCC 2998 = tested on: HCC 2998

For `C=C1COC(O)(C2OCOC(C3CC(=O)NC(=O)C3)C2O)C1C` (centres undefined), the GI50 (MOLT-4) was 0.0011 µM (active), the GI50 (SF-539) was 0.00185 µM (active) and the GI50 (SK-MEL-2) was 0.0016 µM (active). The GI50 (SK-OV-3) was 0.00384 µM (active), the GI50 (NCI-H460) was 0.00413 µM (active) and the GI50 (Malme-3M) was 0.00221 µM (active). For the same compound, the GI50 (RXF 393) was 0.00404 µM (active), the GI50 (OVCAR-5) was < 0.0126 µM (active) and the GI50 (U-251) was 0.00341 µM (active). For the same compound, the GI50 (SR) was 0.00213 µM (active), the GI50 (OVCAR-4) was 0.00342 µM (active) and the GI50 (A498) was 0.0018 µM (active). The GI50 (SK-MEL-28) was 0.00573 µM (active), the GI50 (KM12) was 0.00287 µM (active) and the GI50 (OVCAR-8) was 0.00512 µM (active). For the same compound, the GI50 (HOP-62) was 0.00622 µM (active), the GI50 (EKVX) was 0.00689 µM (active) and the GI50 (HCT-15) was 0.00478 µM. For the same compound, the GI50 (HOP-92) was 0.00244 µM (active) and the GI50 (HCC 2998) was 0.00278 µM (active).

For `N#Cc1c(O)c(/C=N/c2ncccn2)c(=O)n2c1[nH]c1ccccc12`, the GI50 (MOLT-4) was > 100 µM (inactive), the GI50 (SF-539) was > 100 µM (inactive) and the GI50 (SK-MEL-2) was > 100 µM (inactive). The GI50 (SK-OV-3) was > 100 µM (inactive), the GI50 (NCI-H460) was > 100 µM (inactive) and the GI50 (Malme-3M) was > 100 µM (inactive). For the same compound, the GI50 (RXF 393) was > 100 µM (inactive), the GI50 (OVCAR-5) was > 100 µM (inactive) and the GI50 (U-251) was > 100 µM (inactive). The GI50 (SR) was > 100 µM (inactive), the GI50 (OVCAR-4) was > 100 µM (inactive) and the GI50 (A498) was > 100 µM (inactive). The GI50 (SK-MEL-28) was > 100 µM (inactive), the GI50 (KM12) was > 100 µM (inactive) and the GI50 (OVCAR-8) was > 100 µM (inactive). The GI50 (EKVX) was > 100 µM (inactive), the GI50 (HCT-15) was > 100 µM and the GI50 (HOP-92) was > 100 µM (inactive). For the same compound, the GI50 (HCC 2998) was > 100 µM (inactive).

For `O=C(CCc1nnc(S)[nH]1)NC12CC3CC(CC(C3)C1)C2`, the GI50 (SF-539) was > 100 µM (inactive), the GI50 (SK-MEL-2) was > 100 µM (inactive) and the GI50 (SK-OV-3) was > 100 µM (inactive). For the same compound, the GI50 (NCI-H460) was > 100 µM (inactive), the GI50 (Malme-3M) was > 100 µM (inactive) and the GI50 (RXF 393) was > 100 µM (inactive). For the same compound, the GI50 (OVCAR-5) was > 100 µM (inactive), the GI50 (U-251) was > 100 µM (inactive) and the GI50 (SR) was 1 µM (active). For the same compound, the GI50 (OVCAR-4) was > 100 µM (inactive), the GI50 (A498) was > 100 µM (inactive) and the GI50 (SK-MEL-28) was > 100 µM (inactive). The GI50 (KM12) was > 100 µM (inactive), the GI50 (OVCAR-8) was > 100 µM (inactive) and the GI50 (HOP-62) was > 100 µM (inactive). The GI50 (EKVX) was > 100 µM (inactive), the GI50 (HCT-15) was > 100 µM and the GI50 (HOP-92) was > 100 µM (inactive). For the same compound, the GI50 (HCC 2998) was > 100 µM (inactive).

For `N#CCCN(CCC#N)c1ccc(/C=N\c2ccc(F)cc2)cc1`, the GI50 (MOLT-4) was > 19.8 µM (inactive), the GI50 (SF-539) was 15.2 µM (inactive) and the GI50 (SK-MEL-2) was > 16.1 µM (inactive). For the same compound, the GI50 (SK-OV-3) was > 100 µM (inactive), the GI50 (NCI-H460) was 7.01 µM (inactive) and the GI50 (Malme-3M) was > 84.3 µM (inactive). The GI50 (RXF 393) was > 57 µM (inactive), the GI50 (U-251) was > 100 µM (inactive) and the GI50 (SR) was 58.9 µM (inactive). The GI50 (OVCAR-4) was > 49.1 µM (inactive), the GI50 (A498) was > 100 µM (inactive) and the GI50 (SK-MEL-28) was > 48.5 µM (inactive). For the same compound, the GI50 (OVCAR-8) was > 100 µM (inactive), the GI50 (HOP-62) was 27.1 µM (inactive) and the GI50 (EKVX) was > 100 µM (inactive). For the same compound, the GI50 (HCT-15) was 1.15 µM, the GI50 (HOP-92) was > 100 µM (inactive) and the GI50 (HCC 2998) was 1.33 µM (inactive).

`CCC(=O)Nc1cccc(/N=C/c2ccc(OC(=O)/C=C\c3ccccc3)cc2)c1` was tested, and the GI50 (MOLT-4) was 27 µM (inactive), the GI50 (SF-539) was 14.8 µM (inactive) and the GI50 (SK-MEL-2) was > 75 µM (inactive). For the same compound, the GI50 (SK-OV-3) was > 75 µM (inactive), the GI50 (NCI-H460) was 61.5 µM (inactive) and the GI50 (Malme-3M) was 40.4 µM (inactive). For the same compound, the GI50 (RXF 393) was 12.2 µM (inactive), the GI50 (OVCAR-5) was > 75 µM (inactive) and the GI50 (SR) was 54.7 µM (inactive). The GI50 (OVCAR-4) was 45.4 µM (inactive), the GI50 (A498) was > 75 µM (inactive) and the GI50 (SK-MEL-28) was 61.4 µM (inactive). The GI50 (KM12) was 49.2 µM (inactive), the GI50 (OVCAR-8) was > 75 µM (inactive) and the GI50 (HOP-62) was > 75 µM (inactive). The GI50 (EKVX) was 52.1 µM (inactive), the GI50 (HCT-15) was 35.8 µM and the GI50 (HOP-92) was 35.2 µM (inactive). For the same compound, the GI50 (HCC 2998) was 32.3 µM (inactive).

`COc1c(-c2ccc3c(c2)OCO3)oc2cc(O)cc(O)c2c1=O` was tested, and the GI50 (MOLT-4) was 21.2 µM (inactive), the GI50 (SF-539) was 39.6 µM (inactive) and the GI50 (SK-MEL-2) was > 100 µM (inactive). For the same compound, the GI50 (SK-OV-3) was 19.6 µM (inactive), the GI50 (NCI-H460) was 64 µM (inactive) and the GI50 (RXF 393) was 14.9 µM (inactive). The GI50 (OVCAR-5) was > 100 µM (inactive), the GI50 (U-251) was 75.2 µM (inactive) and the GI50 (SR) was 22.6 µM (inactive). For the same compound, the GI50 (OVCAR-4) was 29.5 µM (inactive), the GI50 (A498) was 21.9 µM (inactive) and the GI50 (SK-MEL-28) was > 100 µM (inactive). For the same compound, the GI50 (KM12) was 64.7 µM (inactive), the GI50 (OVCAR-8) was 45.4 µM (inactive) and the GI50 (HOP-62) was 18.6 µM (inactive). For the same compound, the GI50 (EKVX) was 43.7 µM (inactive), the GI50 (HCT-15) was 55.6 µM and the GI50 (HOP-92) was 34.3 µM (inactive). The GI50 (HCC 2998) was 78.9 µM (inactive).
